Values of other authors in paper PMC4744661 (Diabetes/Metabolism Research and Reviews, 2015).

Tested on: gastric emptying
Settings: healthy volunteers and patients with T2DM

Row | Substance | effect on gastric emptying / acetaminophen exposure
1 | exenatide [exenatide BID] | substantially slowed gastric emptying
2 | liraglutide (HAEGTFTSDVSSYLEGQAAKEFIAWLVRGRG; chains of the INN, looked up) | equivalent effects on acetaminophen exposure
